Tested on: PDC KRAS tumor spheroids with HUVEC/MSC, viability
Assay: Anticancer human tumor 349418-098-R-PDC patient-derived lung adenocarcinoma cell line growth inhibition [KRAS2]
Settings: for IC50: curve of first compound; for viability, T/C: stronger effect = lower value
Outline: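 KRAS-mutant tumor cells were grown as spheroids with HUVEC endothelial cells and human MSCs as stroma. Targeted agents were tested alone and with KRAS pathway inhibitors. Doses started at or near clinical Cmax, or 10 microM, descending half-log.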

[1] = second compound 0.1 µM, first compound 0.0316 µM
[2] = second compound 0.1 µM, first compound 0.1 µM
[3] = second compound 0.1 µM, first compound 0.316 µM
[4] = second compound 0.1 µM, first compound 1 µM
[5] = second compound 0.1 µM, first compound 3.16 µM
[6] = second compound 0.316 µM, first compound 0.0316 µM
[7] = second compound 0.316 µM, first compound 0.1 µM
[8] = second compound 0.316 µM, first compound 0.316 µM
[9] = second compound 0.316 µM, first compound 1 µM
[10] = second compound 0.316 µM, first compound 3.16 µM
[11] = second compound 1 µM, first compound 0.0316 µM
[12] = second compound 1 µM, first compound 0.1 µM
[13] = second compound 1 µM, first compound 0.316 µM
[14] = second compound 1 µM, first compound 1 µM
[15] = second compound 1 µM, first compound 3.16 µM
[16] = second compound 3.16 µM, first compound 0.0316 µM
[17] = second compound 3.16 µM, first compound 0.1 µM
[18] = second compound 3.16 µM, first compound 0.316 µM
[19] = second compound 3.16 µM, first compound 1 µM
[20] = second compound 3.16 µM, first compound 3.16 µM
[21] = second compound 10 µM, first compound 0.0316 µM
[22] = second compound 10 µM, first compound 0.1 µM
[23] = second compound 10 µM, first compound 0.316 µM
[24] = second compound 10 µM, first compound 1 µM
[25] = second compound 10 µM, first compound 3.16 µM
[26] = second compound 0.1 µM, first compound 10 µM
[27] = second compound 0.316 µM, first compound 10 µM
[28] = second compound 1 µM, first compound 10 µM
[29] = second compound 3.16 µM, first compound 10 µM
[30] = second compound 10 µM, first compound 10 µM
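Further: spheroids exposed to compounds for seven days before readout.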

Row | Compound | IC50 (second compound 0.1 µM) [µM] | IC50 (second compound 0.316 µM) [µM] | IC50 (second compound 1 µM) [µM] | IC50 (second compound 3.16 µM) [µM] | IC50 (second compound 10 µM) [µM] | viability, T/C [1] [%] | viability, T/C [2] [%] | viability, T/C [3] [%] | viability, T/C [4] [%] | viability, T/C [5] [%] | viability, T/C [6] [%] | viability, T/C [7] [%] | viability, T/C [8] [%] | viability, T/C [9] [%] | viability, T/C [10] [%] | viability, T/C [11] [%] | viability, T/C [12] [%] | viability, T/C [13] [%] | viability, T/C [14] [%] | viability, T/C [15] [%] | other results
1 | CC1COCCN1c1cc(-c2ccnn2C)c2ccnc(-c3ccn[nH]3)c2n1 (stereo not given) + COc1cc2nc(C)nc(NC(C)c3cc(N)cc(C(F)(F)F)c3)c2cc1OC1CCOC1 | < 0.01 | 0.0438 | 0.0485 | 0.0427 | < 0.01 | 8.3 | 5.7 | 5.49 | 6 | 5.72 | 65.5 | 10.9 | 6.49 | 5.47 | 7.16 | 71.2 | 13.9 | 11.7 | 7.84 | 7.72 | viability, T/C (second compound 0.1 µM, first compound 0.01 µM): 5.36%; viability, T/C (second compound 0.316 µM, first compound 0.01 µM): 170%; viability, T/C (second compound 1 µM, first compound 0.01 µM): 167%; viability, T/C (second compound 3.16 µM, first compound 0.01 µM): 146%; viability, T/C [16]: 63.1%; viability, T/C [17]: 12.8%; viability, T/C [18]: 7.88%; viability, T/C [19]: 6.55%; viability, T/C [20]: 9.36%; viability, T/C (second compound 10 µM, first compound 0.01 µM): 36.6%; viability, T/C [21]: 14.1%; viability, T/C [22]: 8.5%; viability, T/C [23]: 6.86%; viability, T/C [24]: 7.4%; viability, T/C [25]: 5.53%
2 | CC1OCC2(CCN(c3cnc(Sc4ccnc(N)c4Cl)c(N)n3)CC2)C1N (stereo not given) + COc1cc2nc(C)nc(NC(C)c3cc(N)cc(C(F)(F)F)c3)c2cc1OC1CCOC1 | > 10 | > 10 | > 10 | > 10 | < 0.0316 | 101 | 77.2 | 54.4 | 97.6 | 85.6 | 114 | 80.8 | 54.5 | 95.3 | 95.3 | 124 | 99.3 | 67.7 | 72.1 | 80 | viability, T/C [26]: 62.7%; viability, T/C [27]: 77.8%; viability, T/C [28]: 74.1%; viability, T/C [16]: 93.8%; viability, T/C [17]: 77.7%; viability, T/C [18]: 46%; viability, T/C [19]: 62.6%; viability, T/C [20]: 86.7%; viability, T/C [29]: 57.1%; viability, T/C [21]: 42.8%; viability, T/C [22]: 29.8%; viability, T/C [23]: 18.9%; viability, T/C [24]: 24.1%; viability, T/C [25]: 35.3%; viability, T/C [30]: 19.2%
3 | CCNC(=O)CC1N=C(c2ccc(Cl)cc2)c2cc(OC)ccc2-n2c(C)nnc21 (stereo not given) + COc1cc2nc(C)nc(NC(C)c3cc(N)cc(C(F)(F)F)c3)c2cc1OC1CCOC1 | 0.093 | 0.106 | 0.099 | 0.0565 | < 0.0316 | 80 | 48 | 20.6 | 7.27 | 2.39 | 105 | 51.4 | 21.9 | 7.39 | 2.09 | 85.2 | 49.9 | 16.4 | 6.15 | 1.76 | viability, T/C [26]: 0.58%; viability, T/C [27]: 0.7%; viability, T/C [28]: 0.68%; viability, T/C [16]: 65.5%; viability, T/C [17]: 34.8%; viability, T/C [18]: 13.5%; viability, T/C [19]: 5.23%; viability, T/C [20]: 1.41%; viability, T/C [29]: 0.77%; viability, T/C [21]: 17%; viability, T/C [22]: 10.3%; viability, T/C [23]: 6.19%; viability, T/C [24]: 1.96%; viability, T/C [25]: 0.42%; viability, T/C [30]: 0.33%
4 | Cn1nccc1Nc1nccc(-c2cc3c(s2)C(C)(C)N(CCN2CCOCC2)C3=O)n1 + COc1cc2nc(C)nc(NC(C)c3cc(N)cc(C(F)(F)F)c3)c2cc1OC1CCOC1 | 0.0524 | 0.0374 | 0.0363 | < 0.0316 | < 0.0316 | 71.1 | 22.4 | 12.5 | 7.65 | 6.07 | 55.6 | 19 | 12.2 | 6.27 | 6.54 | 53.4 | 24.2 | 8.8 | 7.31 | 5.44 | viability, T/C [26]: 4.14%; viability, T/C [27]: 4.93%; viability, T/C [28]: 4.32%; viability, T/C [16]: 41.8%; viability, T/C [17]: 19.1%; viability, T/C [18]: 7.42%; viability, T/C [19]: 5.91%; viability, T/C [20]: 4.66%; viability, T/C [29]: 4.79%; viability, T/C [21]: 15.1%; viability, T/C [22]: 7.62%; viability, T/C [23]: 4.31%; viability, T/C [24]: 3.93%; viability, T/C [25]: 2.92%; viability, T/C [30]: 2.13%

Reference: PubChem BioAssay AID1963866 (Molecular Pharmacology Branch, DTP, NCI, 2024)
